Laboratory results as given in patent US6506555B1, “Use of HIV protease inhibiting compounds” (Institut National de la Sante et de la Recherche Medicale …, priority 1998, dated 2003).
Counter-ions that a name gives are not always drawn. Like-named read-outs stand apart in the source and are kept apart here.

Experiments:
cytotoxic T lymphocytes [1] = assay type: in vivo, C57BL/6 mice; conditions: for swelling of the footpad after injection of LCMV: mice infected in the footpad with LCMV-WE, swelling after seven to eight days
cytotoxic T lymphocytes [2] = assay type: in vivo, C57BL/6 mice; conditions: splenocytes eight days after i.v. LCMV-WE; EL4 cells sensitized with GP33-41 or NP peptide
[3] = target: T1, 20S proteasomes isolated from murine B8 fibroblasts (Mus musculus, UniProt O55234+P70195+Q60692); experiment: Hydrolysis of fluorogenic substrates by isolated 20S proteasomes; assay type: biochemical; conditions: for "chimotrypsin-like" activity (hydrolysis of Suc-LLVY-MCA), comparison of four HIV-1 protease inhibitors: different batch of purified proteasomes, increasing concentrations
T1 construct: 20S proteasomes isolated from murine B8 fibroblasts; endogenous in cells; host or cells: murine B8 fibroblasts; 20S proteasome purified from the cells
Experimental: FIGS. 4B, 4C and 4D show the hydrolysis of the fluorogenic substrate (100 μM Suc-LLVY-MCA, 100 μM (Z)-GGL-MCA and 400 μM Bz-VGR-MCA) of the 20S proteasomes isolated from murine B8 fibroblasts, as a function of variable concentrations of ritonavir and of LLnL (N-acetyl-L-leucinyl-L-leucinal-L-norleucinal, known inhibitor of the proteasome). The results are reported for one hour of digestion with the 20S proteasome (500 ng) in a final volume of 100 μl. The values were located in a linear detection domain and are the mean values of triplicates with standard errors of less than 3%.
The hydrolysis of Suc-LLVY-MCA by the 20S murine proteasomes was tested according to the method described in Example 4.2. under identical conditions except for the fact that a different batch of purified proteasomes was used. The hydrolysis of Suc-LLVY-MCA was measured in the presence of increasing concentrations of ritonavir, nelfinavir (Roche), saquinavir (mesylate) and indinavir (active ingredient of Crixivan® marketed by Merck and Sharp and Dohme). The HIV protease inhibitors were dissolved beforehand in ethanol, methanol, DMSO and water respectively, for use in vitro (FIG. 4E).

[4] = patients with hepatic cytolysis (cytolysis +)
[5] = patients without hepatic cytolysis (cytolysis −)
[6] = 100 μM substrate, one hour digestion, 500 ng 20S proteasome

Q: What does the source list for `CC(C)(C)NC(=O)[C@@H]1CN(Cc2cccnc2)CCN1C[C@@H](O)C[C@@H](Cc1ccccc1)C(=O)N[C@H]1c2ccccc2C[C@H]1O` [indinavir]?
A: swelling of the footpad after injection of LCMV (cytotoxic T lymphocytes [1]): not inhibited; lysis of the target cells (direct lysis ex vivo after systemic infection) (cytotoxic T lymphocytes [2]): not inhibited; "chimotrypsin-like" activity (hydrolysis of Suc-LLVY-MCA), comparison of four HIV-1 protease inhibitors [3]: no inhibition; anti-HCV antibody titre (HCV; during the therapy): No increase; patients in whom the ALAT concentrations increased (HCV; patients coinfected with HCV and HIV): 10%; Ac index (variation of anti-HCV antibody titre, ratio of the optical densities) (HCV; [4]): 0.98; variation of CD4 (HCV; [4]): 29.5 cells /mm^3; variation of CD8 (HCV; [4]): 203.5 cells /mm^3; variation of HCV-VL (viral HCV load) (HCV; [4]): 2.25 log10 of copies of RNA/ml; Ac index (variation of anti-HCV antibody titre, ratio of the optical densities) (HCV; [5]): 1.01(+/−0.13); variation of CD4 (HCV; [5]): 21.1(+/−68) cells /mm^3; variation of CD8 (HCV; [5]): 9.2(+/−222) cells /mm^3; variation of HCV-VL (viral HCV load) (HCV; [5]): +0.41 log10 of copies of RNA/ml; variation of HCV-VL (viral HCV load) (HCV; patients without hepatic cytolysis (cytolysis −), listed as IDN): 0.41(+/−0.79) log10 of copies of RNA/ml

Q: For `Cc1c(O)cccc1C(=O)N[C@@H](CSc1ccccc1)[C@H](O)CN1C[C@H]2CCCC[C@H]2C[C@H]1C(=O)NC(C)(C)C` [nelfinavir], which “swelling of the footpad after injection of LCMV” value (cytotoxic T lymphocytes [1]) is on record?
A: Its value is “not inhibited”.

Q: And the “lysis of the target cells (direct lysis ex vivo after systemic infection)” value (cytotoxic T lymphocytes [2])?
A: The value was “not inhibited”.

Q: What about the “"chimotrypsin-like" activity (hydrolysis of Suc-LLVY-MCA), comparison of four HIV-1 protease inhibitors” value [3] of the same compound?
A: Its value is “no inhibition”.

Q: Which “"chimotrypsin-like" activity (hydrolysis of Suc-LLVY-MCA), comparison of four HIV-1 protease inhibitors” value [3] does the source give for `CC(C)(C)NC(=O)[C@@H]1C[C@@H]2CCCC[C@@H]2CN1C[C@@H](O)[C@H](Cc1ccccc1)NC(=O)[C@H](CC(N)=O)NC(=O)c1ccc2ccccc2n1` [saquinavir mesylate] here?
A: Its value is “inhibits”.

Q: How did the “inhibition of the swelling of the footpads” value (cytotoxic T lymphocytes [1]; 7th day after the treatment, oral dose of 4 mg per day) turn out when `CC(C)(C)NC(=O)[C@@H]1C[C@@H]2CCCC[C@@H]2CN1C[C@@H](O)[C@H](Cc1ccccc1)NC(=O)[C@H](CC(N)=O)NC(=O)c1ccc2ccccc2n1` [saquinavir] was run?
A: The value was “up to 73%”.

Q: And the “"chymotrypsin-like" activity of the proteasome” value ([3]; summary statement)?
A: The value was “inhibited”.

Q: And the “"trypsin" activity of the proteasome” value ([3]; summary statement)?
A: The value was “increased”.

Q: “N-acetyl-L-leucinyl-L-leucinal-L-norleucinal [LLnL]” was tested. Which “hydrolysis of the fluorogenic substrate Suc-LLVY-MCA” value [3, 6] did it give?
A: Its value is “inhibits in a similar manner”.

Q: What about the “hydrolysis of the substrate (Z)-GGL-MCA” value [3, 6] of the same compound?
A: Its value is “inhibits in a similar manner”.

Q: What about the “cleavage of the substrate Bz-VGR-MCA ("trypsin" type activity)” value ([3]; 400 μM substrate, one hour digestion, 500 ng 20S proteasome) of the same compound?
A: The value was “inhibits in a similar manner”.
